Assays:
[1] = system: normal human peripheral blood mononuclear cells (PBMC); format: cell-based; settings: for IC90: tetanus toxoid, 2-3 separate experiments/ganglioside, read-out: ID90 (ganglioside concentration required to cause 90% inhibition of the lymphoproliferative response)
[2] = system: normal human peripheral blood mononuclear cells (PBMC); assay: Inhibition of normal human lymphoproliferative responses to a panel of mitogens and soluble antigens (3H-thymidine uptake); format: cell-based; settings: 0.5% plasma; for 3H-thymidine uptake: mean of triplicate cultures
[3] = Candida Antigen, ganglioside 2.5 μM
[4] = Candida Antigen, ganglioside 10 μM
[5] = Diptheria Toxoid, ganglioside 2.5 μM
[6] = Diptheria Toxoid, ganglioside 10 μM
[7] = Tetanus Toxoid, ganglioside 10 μM

sialosylceramide [GM5]
predicted immunosuppressive activity (in words) ([1]; inferred from Table 2 trend): very active as an immunosuppressant

GD1b
IC90 [1]: 4.5 µM

GT1b
IC90 [1]: 2.8 µM

asialo-GM1 [reference compound]
immunosuppressive activity (in words) [1]: does not substantially alter activity

GD1a
% inhibition [2, 3]: 45% | 3H-thymidine uptake [2, 3]: 3.2 net cpm | % inhibition [2, 4]: 84% | 3H-thymidine uptake [2, 4]: 0.9 net cpm | % inhibition ([2]; ConA, ganglioside 2.5 μM): 0% | 3H-thymidine uptake ([2]; ConA, ganglioside 2.5 μM): 84.3 net cpm | % inhibition ([2]; ConA, ganglioside 10 μM): 37% | 3H-thymidine uptake ([2]; ConA, ganglioside 10 μM): 49.0 net cpm | % inhibition [2, 5]: 60% | 3H-thymidine uptake [2, 5]: 2.1 net cpm | % inhibition [2, 6]: 85% | 3H-thymidine uptake [2, 6]: 0.8 net cpm | % inhibition ([2]; PHA, ganglioside 2.5 μM): 3% | 3H-thymidine uptake ([2]; PHA, ganglioside 2.5 μM): 75.4 net cpm | % inhibition ([2]; PHA, ganglioside 10 μM): 11% | 3H-thymidine uptake ([2]; PHA, ganglioside 10 μM): 69.2 net cpm | % inhibition ([2]; PWM, ganglioside 2.5 μM): 7% | 3H-thymidine uptake ([2]; PWM, ganglioside 2.5 μM): 13.0 net cpm | % inhibition ([2]; PWM, ganglioside 10 μM): 68% | 3H-thymidine uptake ([2]; PWM, ganglioside 10 μM): 4.5 net cpm | 3H-thymidine uptake ([2]; Tetanus Toxoid, ganglioside 2.5 μM): 8.8 net cpm | % inhibition [2, 7]: 88% | 3H-thymidine uptake [2, 7]: 3.2 net cpm | IC90 [1]: 2.3 µM

galactosylceramide [asialo-GM4, reference compound]
IC50 ([1]; tetanus toxoid-induced lymphoproliferation, read-out: ID50 (the source's name)): 13 µM
